Results published in patent publication US8633204B2 (Pfizer Inc., priority 2006, dated 2014).
“Also recorded” adds a separate entry of the source.

Experiments:
SKOV3 tumor model = test: Mouse xenograft efficacy study, SKOV3; assay type: in vivo; conditions: for Growth Inhibition (%): SKOV3 ovarian xenograft
Method: The in vivo efficacy of 2-amino-8-(trans-4-hydroxycyclohexyl)-6-(6-methoxypyridin-3-yl)-4-methylpyrido[2,3-d]pyrimidin-7(8H)-one (Compound 152) disclosed in Example 53 was examined in s.c. xenograft model. Human tumor cell lines PC3 (PTEN deletion)), U87MG (PTEN deletion) and SKOV3 (PI3Kα […]) were chosen for in vivo efficacy studies due to their different genetic background and relatively high levels of phospho AKT S473 signal. Cells were implanted in the hind flank of athymic mice and tumors grew in size to 100-200 mm^3 before daily oral treatment with Compound 152 was initiated. […] For all models tested 1 mg/kg was an efficacious dose.
Animal Care: Female and male athymic mice (6-8 weeks old) weighing ˜22 g were obtained from Charles River Laboratory. Animal were housed on a 12 h light/dark cycle in the Pfizer vivarium and all procedures are conducted in accordance with the Pfizer Institutional Animal Care and Use Committee (IACUC). Animals are provided free access to rodent chow and water ad libitum and maintained under clean room conditions. Prior to study start animals acclimate for at least 48 h.
Cell lines: All cell lines were cultured at 37° C. in humidified 5% CO2 incubator. U87 MG glioblastoma tumor cell line was obtained from American Type Culture Collection (ATCC) and cultured with DMEM supplemented with 15% FBS and 2 mM glutamine. PC3 prostate cancer cell line were obtained from National Cancer Institute and cultured in RPMI media supplemented with 10% FBS and 2 mM glutamine. SKOV3 ovarian cancer cells were obtained from ATCC and passaged multiple times through mice, and cultured in McCoy's 5A media supplemented with 10% FBS and 2 mM glutamine. All cell lines were tested by University of Missouri Research Animal Diagnostic Laboratory for known species of murine viruses and mycoplasma contamination.
Mouse Xenograft Models: U87MG (glioblastoma), PC3 (prostate cancer) and SKOV3 (ovarian cancer) cell lines in culture were harvested by trypsinisation. Briefly, 2.5−4×10^6 tumor cells were suspended in the medium used to culture each cell line without serum and implanted sub-cutaneously (s.c) into the hind flank region of mice on day 0. Daily treatment with Compound 152, formulated in 10% ethanol, 40% PEG and 50% sodium citrate buffer or vehicle alone commenced 10-14 d after implantation when average tumors were 100-200 mm^3 in size. Tumors were measured twice weekly and tumor volume was calculated as a product of (length×width^2)/2. Studies were typically terminated when the tumor in the vehicle treated animals reached a size of >1500 mm3 or when judged to adversely affect the well being of the animal. […] Where applicable, percent tumor regression for each group was calculated as 100×(tumor volumeinitial−tumor volumefinal)/(tumor volumeinitial). A cohort of 12 animals was used for each dose group for efficacy studies. A representative cohort of animals were sacrificed at the times indicated, tumors resected, and a blood sample taken from the cardiac left ventricle and immediately placed in a vial primed with heparin sulfate. Typically one half of the tumor was fixed in 10% neutral buffered formalin, paraffin embedded, and sectioned for immunohistochemistry. The other half was frozen in liquid nitrogen and later processed to generate cell lysates for target modulation studies.

[1] = tested on: phosphorylation of AKT on S473 in U87MG tumors; test: In vivo target modulation study, U87MG tumors; design: species or system mouse; conditions: for p-Akt/Akt(%): 1 h post last dose
Method: In vivo target modulation studies to determine the effect of Compound 152 treatment on the phosphorylation of AKT on S473 by ELISA and S6 on S235/S236 by IHC were performed. Resected tumors were frozen on dry ice and pulverized using the FAST PREP instrument (Qbiogene). Briefly, frozen tumors were placed in Fast Prep matrix tubes, cold lysis buffer [20 mM HEPES (pH 7.5), 150 mM NaCl, 1.0 mM sodium EDTA, 1% Triton X-100, 2.5 mM sodium pyrophosphate, 1 mM sodium orthovanadate, 1 μg/ml leupeptin, and 1 mM PMSF] was added and samples were centrifuged for 5 sec, mixed and process repeated two more times. Samples were centrifuged in a cold refrigerated Eppendorf centrifuge at 14,000 RPM for 20 min. Supernatant was collected and total and phosphoAKT (S473) protein levels determined by ELISA. The extent of phosphorylation in tumors resected from treated animals was compared with that in tumors resected from vehicle-treated animals at the same time point. Plasma samples, obtained by centrifuging individual blood samples at 3000×g for 5 min at 4° C. in an Eppendorf 5417R centrifuge, were stored at −80° C. until they could be analyzed for drug concentration. Briefly, plasma samples (50 μl) or Compound 152 standards in mouse plasma were mixed with acetonitrile […]) and injected onto a LC/MS/MS system where separation occurred on a C-18 SB phenyl (5 μM, 2.1×50 mm, Agilent) reverse-phase high-performance liquid chromatography column. The amount of inhibitor and the internal standard (0.5 μM buspirone) in each mouse plasma sample was quantified based on standard curves generated using known amounts of compound. […] Time course and dose response of in vivo target modulation and plasma inhibitor concentrations were determined post last dose at the end of the efficacy study described above and data are summarized in Table 4.

[2] = SKOV3 tumor model, daily oral treatment

- EC50 ([1]; Mus musculus, U-87 MG, read-out: EC50 plasma concentration for pAKT S473 target modulation): 24 nM
SMILES: COc1ccc(-c2cc3c(C)nc(N)nc3n([C@H]3CC[C@H](O)CC3)c2=O)cn1 [Compound 152, 2-amino-8-(trans-4-hydroxycyclohexyl)-6-(6-methoxypyridin-3-yl)-4-methylpyrido[2,3-d]pyrimidin-7(8H)-one]
- Growth Inhibition (%) (SKOV3 tumor model; 0.5 mg/kg/day oral): 46%
- Growth Inhibition (%) (SKOV3 tumor model; 1 mg/kg/day oral): 66%
- Growth Inhibition (%) (SKOV3 tumor model; 2 mg/kg/day oral): 82%
- anti-tumor efficacy (SKOV3 tumor model; [2]): dose-dependent anti-tumor efficacy; also recorded: growth inhibition
- efficacious dose (SKOV3 tumor model; [2]): 1 mg/kg
- p-Akt/Akt(%) ([1]; U87, 0.1 mg/kg): 44%
- p-Akt/Akt(%) ([1]; U87, 0.3 mg/kg): 27%
- p-Akt/Akt(%) ([1]; U87, 1 mg/kg): 11%
- inhibition of pAKT at S473 ([1]; U87MG tumors in vivo): dose dependent inhibition
